Experimental data: patent US6518262B1, “22R-hydroxycholesta-8, 14-diene derivatives for the inhibition of meiosis” (Akzo Nobel N.V., priority 1999, dated 2003)

Tests used:
[1] = system: cumulus enclosed oocytes (CEO); assay: Oocyte assay, agonistic testing, cumulus enclosed oocytes (CEO assay); assay type: cell-based, mice (B6D2-F1, strain C57BL×DBA); settings: hypoxanthine medium, 22 hours culture, control value in brackets
Excerpt: (§1) Oocytes arrested in meiosis contain diffused chromosomes which are surrounded by an intact nuclear envelope known as the germinal vesicle (GV). Upon reinitiation of meiosis by the midcycle gonadotropin surge, the chromosomes recondense and the GV breaks down (GVBD). In vivo, the oocyte is exposed to hypoxanthine (HX), which maintains the oocyte arrested in the meiotic prophase. This meiotic arrest can be mimicked in vitro by addition of hypoxanthine to the culture medium. The agonistic activity of meiosis activating substances is measured as the ability to overcome the hypoxanthine maintained meiotic arrest in denuded oocytes (DO) or cumulus enclosed oocytes (CEO), i.e. as the ability to induce meiotic resumption in vitro.
(§2) Ovaries are obtained from immature female mice (B6D2-F1, strain C57BL×DBA). At the age of 19, 20 or 21 days the mice are injected subcutaneously with a single dose of 20 IU follicle stimulating hormone (Humegon, Organon, The Netherlands) in saline.
Forty-eight hours after follicle stimulating hormone injection mice are killed by cervical dislocation. The ovaries are removed, freed of extraneous tissue and placed in a multidish containing 0.5 ml preparation medium at 37° C. L-15 Leibovitz medium (Gibco, pH 7.3±0.1) supplemented with bovine serum albumin (3 mg·ml^−1), L-glutamine (0.23 mM), sodium pyruvate (2 mM) and hypoxanthine (4 mM) is used as preparation medium. […]
(§3) The oocyte assay is performed in 3 blocks, each block represents the ovaries of one mouse (randomized block design). […] At t=0 the number of oocytes with intact germinal vesicles (GV) or germinal vesicle break-down (GVBD) is counted under an inverted microscope with differential interference contrast equipment. […] At the end of the culture period the number of oocytes with GV or GVBD per group is counted. For statistical analysis the percentage germinal vesicle breakdown is calculated for each group in one block. These percentages are subjected to arcsin transformation, and differences between control and test compounds are analyzed by an ANOVA test for a randomized block design. […]

[2] = system: denuded oocytes (DO); assay: Oocyte assay, agonistic testing, denuded oocytes (DO assay); assay type: cell-based, mice (B6D2-F1, strain C57BL×DBA); settings: hypoxanthine medium, 22 hours culture, control value in brackets
Excerpt: as §1, §2
Forty-eight hours after follicle stimulating hormone injection mice are killed by cervical dislocation. The ovaries are removed, freed of extraneous tissue and placed in a multidish containing 0.5 ml preparation medium at 37° C. L-15 Leibovitz medium (Gibco, pH 7.3±0.1) supplemented with bovine serum albumin (3 mg·ml^−1), L-glutamine (0.23 mM), sodium pyruvate (2 mM) and hypoxanthine (4 mM) is used as preparation medium. The antral follicles of the ovaries are punctured under a dissecting microscope using two 27-gauge needles attached to two 1 ml syringes. Cumulus enclosed oocytes (CEO) of uniform size are selected with a mouth-controlled pipette and rinsed in 0.5 ml fresh preparation medium. About 20 CEO are obtained from one ovary.
Oocytes freed from cumulus cells, i.e. denuded oocytes (DO), are obtained by gently flushing CEO through a fine-bore mouth-controlled pipette. DO were collected in fresh MEM alpha medium, containing bovine serum albumin (3 mg·ml^−1), L-glutamine (0.23 mM), sodium pyruvate (2 mM) and hypoxanthine (4 mM), and washed twice before transfer to the test medium.
as §3

[3] = system: cultured cumulus enclosed and naked mouse oocytes; settings: cited from earlier work

For `CC(C)=CC[C@H](O)[C@@H](C)[C@H]1CC=C2C3=C(CC[C@@]21C)[C@@]1(C)CC[C@H](O)C(C)(C)[C@@H]1CC3` [22S-hydroxy-FF-Mas, (3β,5α,20S,22S)-4,4-dimethylcholesta-8,14,24-triene-3,22-diol], the “% GVBD CEO assay exp.” value ([1]; compound 5 μM) was 73(2) % and the “% GVBD DO assay exp.” value ([2]; compound 5 μM) was 97(2) %.

For `CC(C)=CCC[C@@H](C)[C@H]1CC[C@H]2C3=C(CC[C@]12C)[C@@]1(C)CC[C@H](O)C(C)(C)[C@@H]1CC3` [(3β,5α,20R)-4,4-dimethylcholesta-8,24-dien-3-ol], the “activation of the resumption of meiosis” value [3] is listed as “able to activate the resumption of meiosis”.

For `CC(C)=CCC[C@@H](C)[C@H]1CC=C2C3=C(CC[C@@]21C)[C@@]1(C)CC[C@H](O)C(C)(C)[C@@H]1CC3` [FF-Mas, (3β,5α,20R)-4,4-dimethylcholesta-8,14,24-trien-3-ol], the “% GVBD CEO assay exp.” value ([1]; compound 10 μM) is listed as 0(0) %, the “activation of the resumption of meiosis” value [3] is listed as “able to activate the resumption of meiosis” and the “% GVBD DO assay exp.” value ([2]; compound 10 μM) is listed as 84(7) %.
